# Measured values published in patent US20040138315A1 (priority 2000, published 2004).
# Experiments:
# [1] = system: PMA-induced aggregation of platelet rich plasma (phorbol ester receptor); experiment: Phorbol ester, platelet aggregation (461500); type: cell-based, rabbit; conditions: for ANT. (antagonist response), phorbol ester platelet aggregation / AG. (agonist response), phorbol ester platelet aggregation: 30 μM, platelet rich plasma, rabbit; for AG. (agonist response), phorbol ester platelet aggregation: relative to PMA 0.5 μM
# Protocol: (§1) Test compounds referred to above were evaluated for inhibition of platelet aggregation induced by adenosine diphosphate, arachidonic acid, phorbol ester and Platelet Activating Factor (PAF) at […]. The following methods were employed in this analysis, and reference compounds for the respective assays are indicated in Appendix 1:
# (§2) Venous blood obtained from male or female New Zealand derived albino rabbits weighing 2.5-3 kg is mixed with one-tenth volume of trisodium citrate (0.13 M) and centrifuged at room temperature for 10 min at 220 g. Test substance (30 μM)-induced aggregation of the supernatant platelet rich plasma by 50 percent or more (≧50%) within 5 min, relative to control phorbol myristate acetate (PMA, 0.5 μM) response at 37° C. as measured by an optical aggregometer, indicates possible phorbol ester receptor agonist activity.
# At a test substance concentration where no significant agonist activity is seen, ability to reduce the PMA (0.5 μM)-induced maximum non-reversible aggregation response by 50 percent or more (>50%) indicates phorbol ester receptor antagonist activity.
# [2] = molecular target: T1, Cannabinoid CB1 (Mus musculus, UniProt P47746); experiment: Cannabinoid CB1 tissue assay, vas deferens (416000); type: cell-based
# T1 construct: tissue 416000; host or cells: vas deferens
# T1 sequence (P47746 whole entry): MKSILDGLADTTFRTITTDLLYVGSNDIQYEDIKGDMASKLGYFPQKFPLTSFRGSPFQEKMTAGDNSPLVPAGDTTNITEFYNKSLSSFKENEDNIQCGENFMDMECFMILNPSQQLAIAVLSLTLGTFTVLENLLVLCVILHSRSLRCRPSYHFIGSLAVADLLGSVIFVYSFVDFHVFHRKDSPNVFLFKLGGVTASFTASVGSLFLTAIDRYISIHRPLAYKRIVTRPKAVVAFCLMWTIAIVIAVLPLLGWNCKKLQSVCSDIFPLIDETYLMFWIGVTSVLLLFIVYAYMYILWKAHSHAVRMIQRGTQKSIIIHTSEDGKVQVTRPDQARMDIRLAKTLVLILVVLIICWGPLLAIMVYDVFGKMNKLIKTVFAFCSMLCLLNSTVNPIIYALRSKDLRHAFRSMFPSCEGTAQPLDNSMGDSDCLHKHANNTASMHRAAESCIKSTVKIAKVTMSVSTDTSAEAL
# [3] = system: arachidonic acid-induced aggregation of platelet rich plasma; experiment: Arachidonic acid, platelet aggregation (412510); type: cell-based, rabbit; conditions: for ANT. (antagonist response), arachidonic acid platelet aggregation / AG. (agonist response), arachidonic acid platelet aggregation: 30 μM, platelet rich plasma, rabbit; for AG. (agonist response), arachidonic acid platelet aggregation: relative to 100 μM arachidonic acid
# Protocol: as §1
# Venous blood obtained from male or female New Zealand derived albino rabbits weighting 2.5-3 kg was mixed with one-tenth volume of trisodeium citrate (0.13M) and centrifuged at room temperature for 10 min at 220 g. Test substance (30 μM)-induced aggregation of the supernatant platelet rich plasma by 50 percent or more (≧50%) within 5 min, relative to 100 μM arachidonic acid response at 37° C. as measured by an optical aggregometer indicates possible agonist activity.
# At a test substance concentration where no significant agonist activity is seen, ability to reduce the arachidonic acid-induced maximum non-reversible aggregation response by 50 percent or more (>50%) was indicative of antagonist activity.
# [4] = system: PAF-acether-induced aggregation of platelet rich plasma (PAF receptor); experiment: PAF, platelet aggregation (463010); type: cell-based, rabbit; conditions: for ANT. (antagonist response), PAF platelet aggregation / AG. (agonist response), PAF platelet aggregation: 30 μM, platelet rich plasma, rabbit; for AG. (agonist response), PAF platelet aggregation: relative to 5 nM PAF-acether
# Protocol: as §1
# as §2, with “temperture” for “temperature”, “Substance” for “substance”, “5 nM platelet activating factor-acether (PAF-acether)” for “phorbol myristate acetate (PMA, 0.5 μM)”, “37[…]” for “37° C.”, “PAF” for “phorbol ester”
# At a test substance concentration where no significant agonist activity is seen, ability to reduce the PAF-acether-induced maximum non-reversible aggregation response by 50 percent or more (≧50%) indicates PAF receptor antagonist activity.
# [5] = system: adenosine diphosphate-induced aggregation of platelet rich plasma (ADP receptor); experiment: Adenosine diphosphate, platelet aggregation (404010); type: cell-based, rabbit; conditions: for ANT. (antagonist response), ADP platelet aggregation / AG. (agonist response), ADP platelet aggregation: 30 μM, platelet rich plasma, rabbit; for AG. (agonist response), ADP platelet aggregation: relative to […] ADP
# Protocol: as §1
# Venous blood obtained from male or female New Zealand derived albino rabbits weighing 2.5-3 kg was mixed with one-tenth volume of trisodium citrate (0.13 M) and centrifuged at room temperature for 10 min at 220 g. Test substance (30 EM)-induced aggregation of the supernatant platelet rich plasma by 50 percent or more (>50%) more relative to 1.2 μM adenosine diphosphate control response at 37° C. as mearsured by an optical aggregometer, indicates possible ADP receptor agonist activity.
# At a test substance concentration where no significant agonist activity is seen, ability to reduce the adenosine diphosphate-induced maximum non-reversible aggregation response by 50 percent or more (≧50%) was indicative of ADP receptor antagonist activity.
# [6] = molecular target: T2, cyclooxygenase COX-1 (Homo sapiens, UniProt P23219); experiment: Cyclooxygenase COX-1 inhibition in human platelets, PGE2 EIA (116010); type: cell-based; conditions: screened at 10 μM
# T2 construct: host or cells: human platelets
# T2 sequence (P23219 24-599): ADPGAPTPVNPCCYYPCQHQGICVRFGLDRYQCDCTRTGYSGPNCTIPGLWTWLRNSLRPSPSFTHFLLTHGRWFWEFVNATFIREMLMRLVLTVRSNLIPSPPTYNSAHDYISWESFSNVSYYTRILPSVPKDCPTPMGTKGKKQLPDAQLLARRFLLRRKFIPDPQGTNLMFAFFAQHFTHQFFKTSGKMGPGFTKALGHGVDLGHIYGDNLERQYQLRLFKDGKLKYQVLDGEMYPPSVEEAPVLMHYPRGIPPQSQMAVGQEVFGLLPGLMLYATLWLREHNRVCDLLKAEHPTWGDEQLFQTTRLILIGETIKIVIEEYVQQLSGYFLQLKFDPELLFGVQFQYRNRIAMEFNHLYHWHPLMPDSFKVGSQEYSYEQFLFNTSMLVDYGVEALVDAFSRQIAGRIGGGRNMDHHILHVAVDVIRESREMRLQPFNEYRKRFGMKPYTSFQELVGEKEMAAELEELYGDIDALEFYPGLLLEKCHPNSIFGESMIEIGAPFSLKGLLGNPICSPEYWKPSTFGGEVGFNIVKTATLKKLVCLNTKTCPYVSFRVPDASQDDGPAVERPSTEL
# Protocol: In these assays, in addition to the designations set forth above, IG-05 refers to resorcinol and IG-06 refers to orcinol.
# To assess COX-1 inhibition, test compound and/or vehicle was incubated with human platelets (5×10^7/well) for 15 minutes at5 37° C. Calcium ionophore A23187 (10 μM) was added to induce the arachidonic acid cascade. After another 15 minutes incubation at 37° C., PGE2 levels in the supernatant were quantiated using the Amersham EIA kit. Compounds were screened at 10 μM.
# [7] = molecular target: T3, thromboxane A2 synthase (Oryctolagus cuniculus, UniProt G1TAZ9); experiment: Thromboxane A2 synthase inhibition, TXB2 radioimmunoassay (194000); type: biochemical, rabbit; conditions: screened at 100 μM
# T3 sequence (G1TAZ9 1-530): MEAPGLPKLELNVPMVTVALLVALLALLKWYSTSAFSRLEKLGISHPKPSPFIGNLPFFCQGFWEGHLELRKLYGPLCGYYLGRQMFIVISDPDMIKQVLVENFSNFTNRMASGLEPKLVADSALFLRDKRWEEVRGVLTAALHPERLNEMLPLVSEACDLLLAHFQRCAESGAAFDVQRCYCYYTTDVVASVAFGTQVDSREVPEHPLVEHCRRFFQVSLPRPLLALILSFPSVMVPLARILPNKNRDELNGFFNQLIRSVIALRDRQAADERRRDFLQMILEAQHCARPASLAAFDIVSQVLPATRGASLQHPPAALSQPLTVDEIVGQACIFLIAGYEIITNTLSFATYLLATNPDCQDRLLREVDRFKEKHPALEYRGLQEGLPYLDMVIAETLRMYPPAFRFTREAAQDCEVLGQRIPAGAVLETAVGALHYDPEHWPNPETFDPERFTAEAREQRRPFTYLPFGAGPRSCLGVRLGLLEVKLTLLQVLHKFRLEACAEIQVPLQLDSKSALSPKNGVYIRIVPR
# Protocol: Test compounds (IG-1 through IG-11) were evaluated for their ability to inhibit cyclooxygenase COX-1, cyclooxygenase COX-2, and thromboxane synthase. In these assays, in addition to the designations set forth above, IG-05 refers to resorcinol and IG-06 refers to orcinol.
# To assess Thromboxane A2 synthase, thromboxane A2 synthase isolated from a microsomal fraction of rabbit platelets by conventional centrifugation was used. The test compound and/or vehicle was incubated with 1:200 dilution of thromboxane A2 synthase and 5 ng prostaglandin G2 as substrate in Tris buffer pH 7.5 for 30 minutes at 37° C. The thromboxane A2 formed is immediately converted to thromboxane B2, which was quantitated by a radioimmunoassay. Compounds are screened at 100 μM.
smiles,measurement,setting,value
"CN[C@@H]1C[C@H]2O[C@@](C)([C@@H]1OC)n1c3ccccc3c3c4c(c5c6ccccc6n2c5c31)C(=O)NC4 [Staurosporine, reference compound]","Concurrent RESP., reference compound, phorbol ester platelet aggregation - Antagonist","[1]; 3 μM, batch 27699",100
"COc1cc(C(C)(C)CCCC(C)C)cc(OC)c1OC [IG-7, 1-(1,1,5-Trimethylhexyl)-3,4,5-trimethoxybenzene]","AG. (agonist response), Cannabinoid CB1",[2]; 30 μM,−106%
same,"ANT. (antagonist response), Cannabinoid CB1",[2]; 30 μM,100%
same,"ANT. (antagonist response), arachidonic acid platelet aggregation",[3],0%
same,"AG. (agonist response), arachidonic acid platelet aggregation",[3],0%
same,"ANT. (antagonist response), PAF platelet aggregation",[4],4%
same,"AG. (agonist response), PAF platelet aggregation",[4],0%
same,"ANT. (antagonist response), ADP platelet aggregation",[5],11%
same,"AG. (agonist response), ADP platelet aggregation",[5],0%
same,"ANT. (antagonist response), phorbol ester platelet aggregation",[1],9%
same,"AG. (agonist response), phorbol ester platelet aggregation",[1],0%
"Cc1cc(O)cc(O)c1 [IG-6, orcinol]",COX-1 inhibition (in words),[6],potent inhibitors of COX-1
"COc1cc(C(C)(C)CCCC(C)C)cc(OC)c1O [IG-2, 4-(1,1,5-trimethylhexyl)-2,6-dimethoxyphenol]",COX-1 inhibition (in words),[6],potent inhibitors of COX-1
"CC1=CCC2C(C1)c1c(O)cc(C(C)(C)CCCC(C)C)cc1OC2(C)C (stereo not drawn) [IG-9, 3-Norpentyl-3-(1,1,5-trimethylhexyl)-Δ 8-tetrahydrocannabinol]","ANT. (antagonist response), arachidonic acid platelet aggregation",[3],0%
same,"AG. (agonist response), arachidonic acid platelet aggregation",[3],0%
same,"ANT. (antagonist response), PAF platelet aggregation",[4],4%
same,"AG. (agonist response), PAF platelet aggregation",[4],0%
same,"ANT. (antagonist response), ADP platelet aggregation",[5],7%
same,"AG. (agonist response), ADP platelet aggregation",[5],0%
same,"ANT. (antagonist response), phorbol ester platelet aggregation",[1],4%
same,"AG. (agonist response), phorbol ester platelet aggregation",[1],0%
"CCCCC/C=C\C/C=C\C/C=C\C/C=C\CCCC(=O)O [Arachidonic Acid, reference compound]","Concurrent RESP., reference compound, arachidonic acid platelet aggregation - Agonist","[3]; 100 μM, batch 27731",100
"CCCCCCCCCCCCCC(=O)O[C@@H]1[C@@H](C)[C@@]2(O)[C@@H](C=C(CO)C[C@]3(O)C(=O)C(C)=C[C@@H]23)[C@@H]2C(C)(C)[C@]12OC(C)=O [PMA, phorbol myristate acetate, reference compound]","Concurrent RESP., reference compound, phorbol ester platelet aggregation - Agonist","[1]; 0.5 μM, batch 27699",100
"Nc1nc(Cl)nc2c1ncn2[C@@H]1O[C@H](CO)[C@@H](O)[C@H]1O [2-Chloroadenosine, reference compound]","Concurrent RESP., reference compound, ADP platelet aggregation - Antagonist","[5]; 10 μM, batch 27737",90
"COc1ccc2c(c1)c(CC(=O)O)c(C)n2C(=O)c1ccc(Cl)cc1 [Indomethacin, reference compound]","Concurrent RESP., reference compound, arachidonic acid platelet aggregation - Antagonist","[3]; 0.3 μM, batch 27731",100
"CCCCC/C=C\C/C=C\C/C=C\C/C=C\CCCC(=O)NCCO [Anandamide, reference compound]","Concurrent RESP., reference compound, Cannabinoid CB1 - Agonist","[2]; 0.1 μM, batch 27098",100
"CCCCCCCCCCCCCCCCOC[C@H](COP(=O)([O-])OCC[N+](C)(C)C)OC(C)=O [PAF, platelet activating factor-acether, reference compound]","Concurrent RESP., reference compound, PAF platelet aggregation - Agonist","[4]; 5 nM, batch 27927",100
CC(C)CCCC(C)(C)c1cc(O)cc(O)c1,melting point,,95 to 96 °C
"Cc1nnc2n1-c1sc(CCC(=O)N3CCOCC3)cc1C(c1ccccc1Cl)=NC2 [WEB-2086, reference compound]","Concurrent RESP., reference compound, PAF platelet aggregation - Antagonist","[4]; 0.3 μM, batch 27927",97
"Cc1ccc2c(c1)-c1c(O)cc(C(C)(C)CCCC(C)C)cc1OC2(C)C [IG-11, 3-Norpentyl-3-(1,1,5-trimethylhexyl)cannabinol]",Thromboxane synthase inhibition (in words),[7],significantly inhibit thromboxane synthase
same,"AG. (agonist response), Cannabinoid CB1",[2]; 30 μM,102%
same,"ANT. (antagonist response), arachidonic acid platelet aggregation",[3],0%
same,"AG. (agonist response), arachidonic acid platelet aggregation",[3],0%
same,"ANT. (antagonist response), PAF platelet aggregation",[4],11%
same,"AG. (agonist response), PAF platelet aggregation",[4],0%
same,"ANT. (antagonist response), ADP platelet aggregation",[5],0%
same,"AG. (agonist response), ADP platelet aggregation",[5],0%
same,"ANT. (antagonist response), phorbol ester platelet aggregation",[1],8%
same,"AG. (agonist response), phorbol ester platelet aggregation",[1],0%
